In assay [1] the target is CtBP2 (Homo sapiens, UniProt P56545). Briefly: Isothermal titration calorimetry. The class given is binding.
The subject of assay [2] is CtBP. It is filed as biochemical, human.
In assay [3] the test system is HCT116 colon cancer cells. To be noted: through displacement of CtBP2 from the Bik promoter; cited from earlier work.
Assay [4] relates to mouse xenograft models. To be noted: compared with untreated mice; cited from earlier work.
Assay [5] relates to CtBP. To be noted: cited from earlier work.
The target in assay [6] is CtBP1 (Homo sapiens, UniProt Q13363). Briefly: Isothermal titration calorimetry. To be noted: CtBP1, pH 7.5, displacement ITC with HIPP.
Assay [7] has as its system CtBP. The note with it: cited from earlier work. This is another data set of the same source.
Setting [8] is: CtBP2, pH 8.5, competitive displacement ITC with HIPP.

On to `O=C(O)C(=O)Cc1ccccc1` [PPy, phenylpyruvate], for which, in assay [1] (CtBP2, low PPy concentrations, CtBP2 precipitation prevented quantitation), the “binding relative to MTOB (ITC injection peaks)” value is on record as “tighter than MTOB”. Further, the IC50 in assay [2] (CtBP dehydrogenase function, after 15 minutes) worked out at 135 µM.

For `CSCCC(=O)C(=O)O` [MTOB, 4-methylthio 2-oxobutyric acid], the “binding dissociation constant, direct ITC measurement” value in assay [1] (CtBP2, direct titration, low signal) is “low millimolar range”. Besides, in assay [1] (setting [8]), the ΔG is -3.4 kcal, the ΔH is -3.4 ± 0.34 kcal/mol and the “−TΔS” value is 0.0 kcal/mol. The substrate inhibition result in assay [2] (MTOB in excess) is “exhibits substrate inhibition when in excess”. Besides, the apoptosis entry in assay [3] is recorded as “induced apoptosis”. Also, in assay [4], the survival result is listed as “prolonged survival” and the tumor burden result is on record as “decreased tumor burden”. Besides, the “concentrations required for (substrate) inhibition of CtBP” value in assay [5] was over 300 µM. Further, in assay [6], the ΔG was -3.9 kcal, the ΔH is -11.3 ± 0.83 kcal/mol and the “−TΔS” value is 7.4 kcal/mol.

Take `NC(=O)C1=CN([C@@H]2O[C@H](COP(=O)(O)OP(=O)(O)OC[C@H]3O[C@@H](n4cnc5c(N)ncnc54)[C@H](O)[C@@H]3O)[C@@H](O)[C@H]2O)C=CC1` [NADH]: the “affinity of CtBP for NADH relative to NAD+” value in assay [7] is reported as 100 fold.

These data come from paper PMC4844192 (ACS chemical biology, 2015).
